Legend:
[1] = SRB cytotoxicity assay, LX-2; type: cell-based, human; conditions: human, LX-2 cells; LX-2, 48 h, SRB
Description: (§1) HEK293 (Human embryonic kidney cell line), HepG2 (Human liver carcinoma cell line), LX-2 (Human hepatic stellate cell line), and 3T3-L1 (Murine preadipocyte cell line) cells were obtained from the American Type Culture Collection (ATCC), Bethesda, MD, USA.

[2] = tested on: LX-2 (Human hepatic stellate cell line); experiment: SRB cytotoxicity assay, LX-2; type: cell-based
Description: as §1

[3] = tested on: Salmonella typhimurium strain TA98; experiment: Salmonella mutation assay (Ames test), TA98; type: cell-based
Experimental: Overnight bacterial cultures were mixed with various doses of test compounds with (+S9) or without (−S9) and incubated at 37 °C for 20 min. The top agar was added and then poured onto a plate of minimal glucose agar. The plates were incubated at 37 °C for 48 h. The number of revertant colonies was counted and the mutagenic index (MI) was calculated. 2-aminoanthracene (2-AA) and 2-(2-furyl)-3-(5-nitro-2-furyl)-acrylamide (AF-2) were used as positive mutagens in the presence and absence of S9.

[4] = tested on: iNOS; experiment: iNOS protein level by immunoblotting in LPS-treated RAW 264.7; type: cell-based, murine; conditions: 100, 200, 400 µg/mL, LPS 1 µg/mL 24 h
Experimental: RAW 264.7 macrophage cells were pretreated with various concentrations of the oligopeptide and its conjugated forms (100, 200, 400 µg/mL) for an hour and then incubated with LPS (1 µg/mL) for a further 24 h (at 37 °C in a 5% CO2 humidified atmosphere). The cells were then collected to investigate the iNOS and COX-2 protein levels. Cell lysate was prepared to obtain the protein samples. The samples were subjected to 10% sodium dodecyl sulfate polyacrylamide gel electrophoresis (SDS-PAGE). The separated proteins were electrically transferred to a nitrocellulose membrane. The target proteins were probed with specific antibodies, including anti-COX-2 antibody (Cell signaling, Danvers, MA, USA), anti-iNOS antibody (Merck, Rahway, NJ, USA), and anti-β-actin antibody (Sigma, St. Louis, MO, USA). Protein detection was performed using a chemiluminescence reagent (Bio-Rad Laboratories, Watford, UK).

[5] = SRB cytotoxicity assay, HepG2; type: cell-based, human; conditions: human, HepG2 cells; HepG2, 48 h, SRB
Description: as §1

[6] = tested on: HepG2 (Human liver carcinoma cell line); experiment: SRB cytotoxicity assay, HepG2; type: cell-based
Description: as §1

[7] = SRB cytotoxicity assay, PBMCs; type: cell-based, human; conditions: human, peripheral blood mononuclear cells (PBMCs); PBMCs, 800 µg/mL; read-out: % Cell Viability (n = 5)
Description: (§2) As described by […] et al., human peripheral blood mononuclear cells (PBMCs) and red blood cells (RBCs) were isolated from human blood samples [41]. Human blood samples of healthy subjects obtained from Maharaj Hospital, Chiang Mai, Thailand, were anonymized and kept in a heparinized tube by the laboratory. RBCs were collected and used to determined hemolysis induction by a hemolysis assay. Ficoll-Hypaque solution was used to isolate PBMCs, as described in the manufacturer's instructions. A certificate of exemption by the Research Ethics Committee of the Faculty of Medicine, Chiang Mai University (No. EXEMPTION 8989/2022), was granted. Consent to participate was not applicable as all data were anonymized. All methods were carried out in accordance with relevant guidelines and regulations.

[8] = tested on: human peripheral blood mononuclear cells (PBMCs); experiment: SRB cytotoxicity assay, PBMCs; type: cell-based; conditions: up to 800 µg/mL
Description: as §2

[9] = tested on: NO production in LPS-treated RAW 264.7 macrophages; experiment: LPS-induced nitric oxide (NO)/nitrite production, Griess reaction; type: cell-based, murine; conditions: 100, 200, 400 µg/mL pretreatment 1 h, LPS 1 µg/mL 24 h
Experimental: To screen the anti-inflammation ability of the compounds, the nitrite level in the cultured medium of the treated cells was determined by the Griess reaction. RAW 264.7 macrophage cells were pretreated with various concentrations of the oligopeptide and its conjugated forms (100, 200, 400 µg/mL) for an hour and then incubated with LPS (1 µg/mL) for further 24 h at 37 °C in a 5% CO2 humidified atmosphere. The culture supernatant was collected for the Griess reagent assay as previous described. The NO production was calculated by comparison with LPS-treated controls.

[10] = Hemolysis assay; type: cell-based, human; conditions: human, 5% red blood cell suspension; 800 µg/mL, 5% RBCs, 37 °C, 3 h; read-out: % Hemolysis (n = 5)
Description: As described by Karinchai et al., human peripheral blood mononuclear cells (PBMCs) and red blood cells (RBCs) were isolated from human blood samples [41]. Human blood samples of healthy subjects obtained from Maharaj Hospital, Chiang Mai, Thailand, were anonymized and kept in a heparinized tube by the laboratory. RBCs were collected and used to determined hemolysis induction by a hemolysis assay. Ficoll-Hypaque solution was used to isolate PBMCs, as described in the manufacturer’s instructions. A certificate of exemption by the Research Ethics Committee of the Faculty of Medicine, Chiang Mai University (No. EXEMPTION 8989/2022), was granted. Consent to participate was not applicable as all data were anonymized. All methods were carried out in accordance with relevant guidelines and regulations.
The hemolytic effect of the oligopeptide and its conjugated forms was determined by hemolysis assay. Briefly, the 5% RBCs suspension was mixed with various concentrations of the samples and further incubated at 37 °C for 3 h. The hemolysis induction by the compounds was measured as described previously. The hemolytic effect of each compound was interpreted using the following guidelines: 0–10% hemolysis is non-hemolysis, 10–25% hemolysis is slight hemolysis induction, and >25% hemolysis is high hemolysis induction.

OC[C@H]1OC(O)[C@@H](O)[C@@H](O)[C@@H]1O (stereo partly drawn) [Man, D-mannose]
IC20 at 48 h [1]: > 1000 µg/mL
IC50 ([2]; Homo sapiens, LX-2, 48 h, SRB, read-out: IC50): > 1000 µg/mL
toxicity to cells ([2]; LX-2, up to 1000 µg/mL, 48 h): not toxic
His^+ Revertant Colonies per Plate ([3]; TA98, +S9, 0.04 mg per plate): 37.7 ± 5.7
His^+ Revertant Colonies per Plate ([3]; TA98, +S9, 0.2 mg per plate): 37.8 ± 3.8
His^+ Revertant Colonies per Plate ([3]; TA98, +S9, 1 mg per plate): 36.5 ± 7.5
His^+ Revertant Colonies per Plate ([3]; TA98, +S9, 5 mg per plate): 38.5 ± 7.8
mutagenicity ([3]; TA98, presence and absence of the S9 mix): did not cause any mutagenicity
His^+ Revertant Colonies per Plate ([3]; TA98, −S9, 0.04 mg per plate): 30.5 ± 2.5
His^+ Revertant Colonies per Plate ([3]; TA98, −S9, 0.2 mg per plate): 30.8 ± 4.8
His^+ Revertant Colonies per Plate ([3]; TA98, −S9, 1 mg per plate): 27.8 ± 6.5
His^+ Revertant Colonies per Plate ([3]; TA98, −S9, 5 mg per plate): 28.7 ± 6.0
effect on iNOS protein level [4]: did not affect
IC20 at 48 h [5]: > 1000 µg/mL
toxicity to cells ([6]; HepG2, up to 1000 µg/mL, 48 h): not toxic
IC50 ([6]; Homo sapiens, HepG2, 48 h, SRB, read-out: IC50): > 1000 µg/mL
viability at 48 h, 800 µg/mL [7]: 106 ± 13.3%
toxic effects to hPBMCs [8]: did not show any toxic effects
inhibition of LPS-induced NO production [9]: did not inhibit
hemolysis at 3 h, 800 µg/mL [10]: 1.84 ± 0.42%

From PMC11353420, “Anti-Inflammatory, Cytotoxic, and Genotoxic Effects of Soybean Oligopeptides Conjugated with Mannose” (Foods, 2024)
